According to PubChem BioAssay (NCI):
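Assay format: 96-well plates, 48-hour exposure. Abbreviation: GI50, concentration required for 50% inhibition of growth. The concentration for full growth arrest is given as TGI.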

The compounds below were run on MCF7 breast (assay: NCI tumour cell line growth inhibition, 48 h).
For `Cc1cc(NC(=O)c2ccc(C)c(Nc3nccc(-c4cccnc4)n3)c2)cc(-n2cnc(C)c2)c1`, the GI50 was 1.86 µM and the TGI was 9.19 µM. `O=C(O)c1c(-c2nccc3ccccc23)[nH]c(-c2ccccc2)c1S(=O)(=O)O` was tested, and the TGI was > 100 µM. With `Cc1[nH]n(-c2cccc(Cl)c2)c(=O)c1/C=C1\C=Nc2ccc(Br)cc21` the GI50 was 5.95 µM and the TGI was > 100 µM. For `CCCS(=O)(=O)Nc1ccc(Nc2c3ccccc3nc3ccccc23)c(OC)c1`, the TGI was 16.3 µM. For `CCN(CC)CCNCC(=O)Oc1ccc(/C=C/C(=O)CC(=O)/C=C/c2ccc(OC(=O)CNCCN(CC)CC)c(OC)c2)cc1OC`, the GI50 was 2.58 µM and the TGI was 18 µM. With `O=C(O)Cc1c(O)ccc2ccccc12` the TGI was > 100 µM. `Cc1ccc(Nc2nc(N)c(C(=O)c3ccc(C#N)cc3)s2)cc1` was tested, and the GI50 was 0.369 µM and the TGI was > 100 µM. For `CN(C)Cc1c[nH]c2c1C(=O)c1c(c(O)c3ccccc3c1O)C2=O`, the GI50 was 3.22 µM and the TGI was 15.5 µM. For `CN1CCc2c(Sc3ccc(C(=O)NO)cc3)c3ccccc3n2C1`, the GI50 was 2.7 µM and the TGI was 13.6 µM. `CC(=O)O[C@@H]1C[C@]2(C(C)C)O[C@@]1(C)[C@@H]1CCC(C)=C1[C@@H]2OC(=O)/C=C/c1ccccc1` was tested, and the GI50 was 19.5 µM and the TGI was > 100 µM. For `NC(N)=N/N=C/c1cc(Cl)cc(Cl)c1O`, the TGI was > 100 µM. For `N#CC1Nc2ccccc2[C@@H](O)C1O` (stereo not given in full), the TGI was > 100 µM. Compound `c1ccc2c3ccn4cc5c(cc4c-3nc2c1)CCCC5` has a GI50 of 2.5 µM and a TGI of 11 µM.

These compounds were tested on HS 578T breast (assay: NCI tumour cell line growth inhibition, 48 h).
Work on `Cc1cc(NC(=O)c2ccc(C)c(Nc3nccc(-c4cccnc4)n3)c2)cc(-n2cnc(C)c2)c1` yielded a GI50 of 0.0847 µM and a TGI of 14.4 µM. In the case of `O=C(O)c1c(-c2nccc3ccccc23)[nH]c(-c2ccccc2)c1S(=O)(=O)O`, the TGI is reported as > 100 µM. For `Cc1[nH]n(-c2cccc(Cl)c2)c(=O)c1/C=C1\C=Nc2ccc(Br)cc21`, the GI50 was 2.46 µM and the TGI was 8.04 µM. `CCCS(=O)(=O)Nc1ccc(Nc2c3ccccc3nc3ccccc23)c(OC)c1` was tested, and the TGI was 16.7 µM. Compound `CCN(CC)CCNCC(=O)Oc1ccc(/C=C/C(=O)CC(=O)/C=C/c2ccc(OC(=O)CNCCN(CC)CC)c(OC)c2)cc1OC` has a GI50 of 3.59 µM and a TGI of 26.4 µM. With `O=C(O)Cc1c(O)ccc2ccccc12` the TGI was > 100 µM. `Cc1ccc(Nc2nc(N)c(C(=O)c3ccc(C#N)cc3)s2)cc1` was tested, and the GI50 was 0.546 µM and the TGI was > 100 µM. `CN(C)Cc1c[nH]c2c1C(=O)c1c(c(O)c3ccccc3c1O)C2=O` was tested, and the GI50 was 10.9 µM and the TGI was 26.7 µM. Work on `CN1CCc2c(Sc3ccc(C(=O)NO)cc3)c3ccccc3n2C1` yielded a GI50 of 2.64 µM and a TGI of 27 µM. For `CC(=O)O[C@@H]1C[C@]2(C(C)C)O[C@@]1(C)[C@@H]1CCC(C)=C1[C@@H]2OC(=O)/C=C/c1ccccc1`, the GI50 was 4.79 µM and the TGI was > 100 µM. With `NC(N)=N/N=C/c1cc(Cl)cc(Cl)c1O` the TGI was > 100 µM. With `N#CC1Nc2ccccc2[C@@H](O)C1O` (stereo not given in full) the TGI was > 100 µM. With `c1ccc2c3ccn4cc5c(cc4c-3nc2c1)CCCC5` the GI50 was 3.01 µM and the TGI was 21.5 µM.

What follows are compounds tested on HOP-62 NSCLC (assay: NCI tumour cell line growth inhibition, 48 h).
Work on `Cc1cc(NC(=O)c2ccc(C)c(Nc3nccc(-c4cccnc4)n3)c2)cc(-n2cnc(C)c2)c1` yielded a GI50 of 1.68 µM and a TGI of 6.7 µM. In the case of `O=C(O)c1c(-c2nccc3ccccc23)[nH]c(-c2ccccc2)c1S(=O)(=O)O`, the TGI is reported as > 100 µM. In the case of `Cc1[nH]n(-c2cccc(Cl)c2)c(=O)c1/C=C1\C=Nc2ccc(Br)cc21`, the GI50 is reported as 2.33 µM and the TGI is reported as 5.14 µM. `CCCS(=O)(=O)Nc1ccc(Nc2c3ccccc3nc3ccccc23)c(OC)c1` was tested, and the TGI was 5.72 µM. `CCN(CC)CCNCC(=O)Oc1ccc(/C=C/C(=O)CC(=O)/C=C/c2ccc(OC(=O)CNCCN(CC)CC)c(OC)c2)cc1OC` showed a GI50 of 3.34 µM and a TGI of 12.8 µM. With `O=C(O)Cc1c(O)ccc2ccccc12` the TGI was > 100 µM. `Cc1ccc(Nc2nc(N)c(C(=O)c3ccc(C#N)cc3)s2)cc1` was tested, and the GI50 was 0.503 µM and the TGI was > 70.3 µM. With `CN(C)Cc1c[nH]c2c1C(=O)c1c(c(O)c3ccccc3c1O)C2=O` the GI50 was 10.7 µM and the TGI was 27.9 µM. Work on `CN1CCc2c(Sc3ccc(C(=O)NO)cc3)c3ccccc3n2C1` yielded a GI50 of 1.97 µM and a TGI of 6.12 µM. For `CC(=O)O[C@@H]1C[C@]2(C(C)C)O[C@@]1(C)[C@@H]1CCC(C)=C1[C@@H]2OC(=O)/C=C/c1ccccc1`, the GI50 was 88.8 µM and the TGI was > 100 µM. `NC(N)=N/N=C/c1cc(Cl)cc(Cl)c1O` was tested, and the TGI was > 100 µM. `N#CC1Nc2ccccc2[C@@H](O)C1O` (stereo not given in full) was tested, and the TGI was > 100 µM. `c1ccc2c3ccn4cc5c(cc4c-3nc2c1)CCCC5` showed a GI50 of 3.5 µM and a TGI of 13.1 µM.

The compounds below were run on OVCAR-5 ovarian (assay: NCI tumour cell line growth inhibition, 48 h).
`Cc1cc(NC(=O)c2ccc(C)c(Nc3nccc(-c4cccnc4)n3)c2)cc(-n2cnc(C)c2)c1` was tested, and the GI50 was 3.54 µM and the TGI was 10.5 µM. `O=C(O)c1c(-c2nccc3ccccc23)[nH]c(-c2ccccc2)c1S(=O)(=O)O` was tested, and the TGI was > 100 µM. Work on `Cc1[nH]n(-c2cccc(Cl)c2)c(=O)c1/C=C1\C=Nc2ccc(Br)cc21` yielded a GI50 of 3.1 µM and a TGI of 10.2 µM. `CCCS(=O)(=O)Nc1ccc(Nc2c3ccccc3nc3ccccc23)c(OC)c1` showed a TGI of 23.6 µM. `CCN(CC)CCNCC(=O)Oc1ccc(/C=C/C(=O)CC(=O)/C=C/c2ccc(OC(=O)CNCCN(CC)CC)c(OC)c2)cc1OC` was tested, and the GI50 was 3.83 µM and the TGI was 15.1 µM. For `O=C(O)Cc1c(O)ccc2ccccc12`, the TGI was > 100 µM. With `Cc1ccc(Nc2nc(N)c(C(=O)c3ccc(C#N)cc3)s2)cc1` the GI50 was 2.98 µM and the TGI was > 100 µM. `CN(C)Cc1c[nH]c2c1C(=O)c1c(c(O)c3ccccc3c1O)C2=O` gave a GI50 of 14.3 µM and a TGI of 27.3 µM. `CN1CCc2c(Sc3ccc(C(=O)NO)cc3)c3ccccc3n2C1` gave a GI50 of 2.6 µM and a TGI of 10.7 µM. For `CC(=O)O[C@@H]1C[C@]2(C(C)C)O[C@@]1(C)[C@@H]1CCC(C)=C1[C@@H]2OC(=O)/C=C/c1ccccc1`, the GI50 was > 100 µM and the TGI was > 100 µM. In the case of `NC(N)=N/N=C/c1cc(Cl)cc(Cl)c1O`, the TGI is reported as > 100 µM. In the case of `N#CC1Nc2ccccc2[C@@H](O)C1O` (stereo not given in full), the TGI is reported as > 100 µM. Compound `c1ccc2c3ccn4cc5c(cc4c-3nc2c1)CCCC5` has a GI50 of 4.49 µM and a TGI of 19.3 µM.

These compounds were tested on SK-OV-3 ovarian (assay: NCI tumour cell line growth inhibition, 48 h).
`Cc1cc(NC(=O)c2ccc(C)c(Nc3nccc(-c4cccnc4)n3)c2)cc(-n2cnc(C)c2)c1` gave a GI50 of 1.73 µM and a TGI of 4.93 µM. With `O=C(O)c1c(-c2nccc3ccccc23)[nH]c(-c2ccccc2)c1S(=O)(=O)O` the TGI was > 100 µM. `Cc1[nH]n(-c2cccc(Cl)c2)c(=O)c1/C=C1\C=Nc2ccc(Br)cc21` was tested, and the GI50 was 2.22 µM and the TGI was 4.53 µM. `CCCS(=O)(=O)Nc1ccc(Nc2c3ccccc3nc3ccccc23)c(OC)c1` showed a TGI of 16.4 µM. `CCN(CC)CCNCC(=O)Oc1ccc(/C=C/C(=O)CC(=O)/C=C/c2ccc(OC(=O)CNCCN(CC)CC)c(OC)c2)cc1OC` gave a GI50 of 3.71 µM and a TGI of 12.6 µM. In the case of `O=C(O)Cc1c(O)ccc2ccccc12`, the TGI is reported as > 100 µM. In the case of `Cc1ccc(Nc2nc(N)c(C(=O)c3ccc(C#N)cc3)s2)cc1`, the GI50 is reported as 0.449 µM and the TGI is reported as 46 µM. With `CN(C)Cc1c[nH]c2c1C(=O)c1c(c(O)c3ccccc3c1O)C2=O` the GI50 was 52 µM and the TGI was > 100 µM. In the case of `CN1CCc2c(Sc3ccc(C(=O)NO)cc3)c3ccccc3n2C1`, the GI50 is reported as 2.08 µM and the TGI is reported as 5.67 µM. In the case of `CC(=O)O[C@@H]1C[C@]2(C(C)C)O[C@@]1(C)[C@@H]1CCC(C)=C1[C@@H]2OC(=O)/C=C/c1ccccc1`, the GI50 is reported as 71.3 µM and the TGI is reported as > 100 µM. For `NC(N)=N/N=C/c1cc(Cl)cc(Cl)c1O`, the TGI was > 100 µM. For `N#CC1Nc2ccccc2[C@@H](O)C1O` (stereo not given in full), the TGI was > 100 µM. `c1ccc2c3ccn4cc5c(cc4c-3nc2c1)CCCC5` gave a GI50 of 3.41 µM and a TGI of 10.5 µM.
